# In patent US20140005163A1 (NOVARTIS AG, priority 2010, published 2014):
# What was measured:
# Assay type in all cases: biochemical
# [1] = molecular target: T1, PI3K gamma (Homo sapiens, UniProt P48736); assay: PI3K gamma kinase assay (Kinase-Glo luminescence)
# T1 construct: His tag (C); made in house; host or cells: baculovirus (pVL1393); Tn5 or TiniPro insect cells; construct from Roger Williams lab, MRC LMB
# Summary of the method: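 PI3Kγ (150 nM) reaction run 120 min at room temperature with phosphatidylinositol substrate (10 μg/mL) and ATP (1 μM) in Tris pH 7.5 buffer containing MgCl2, NaCl, CHAPS and DTT. Remaining ATP detected by Kinase-Glo luminescence; 8 concentrations per compound, IC50 from 4-parameter curve fitting.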
# [2] = molecular target: T2, PI3K alpha (Homo sapiens, UniProt P42336); assay: PI3K alpha kinase assay (Kinase-Glo luminescence)
# T2 construct: p85(iSH2) fusion partner (see partner chain) (N); His tag (C); made in house; host or cells: baculovirus; Tn5 (Trichoplusia ni) or TiniPro insect cells
# Summary of the method: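 PI3Kα construct EMV B1075 (10 nM final) was preincubated with 10 μg/mL phosphatidylinositol in 10 mM Tris-HCl pH 7.5, 3 mM MgCl2, 50 mM NaCl, 0.05% CHAPS, 1 mM DTT. Reaction started with 1 μM ATP, 60 min at room temperature; remaining ATP measured by Kinase-Glo luminescence. IC50 from 4-parameter logistic fit of 8-point titrations.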
# [3] = molecular target: T3, PI3K delta (Homo sapiens, UniProt O00329); assay: PI3K delta kinase assay (Kinase-Glo luminescence)
# T3 construct: for the full-length p110-d subunit are generated and fused by overlapping PCR; p85(iSH2) fusion partner (see partner chain) (N); His tag (C); made in house; host or cells: baculovirus; Tn5 (Trichoplusia ni) or TiniPro insect cells
# Summary of the method: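 Recombinant p85(iSH2)-Gly linker-p110δ full-length construct (BV1060, C-terminal His tag) was used at 10 nM with 10 μg/mL phosphatidylinositol and 1 μM ATP in 10 mM Tris-HCl pH 7.5, 3 mM MgCl2, 50 mM NaCl, 0.05% CHAPS, 1 mM DTT. After 60 min at room temperature, remaining ATP was measured by Kinase-Glo luminescence.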
# [4] = molecular target: T4, PI3K beta (Homo sapiens, UniProt P42338); assay: PI3K beta kinase assay (Kinase-Glo luminescence)
# T4 construct: for the full-length p110-b subunit are generated and fused by overlapping PCR; p85(iSH2) fusion partner (see partner chain) (N); His tag (C); made in house; host or cells: baculovirus; Tn5 (Trichoplusia ni) or TiniPro insect cells
# Summary of the method: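 Residual ATP after a 60 min room-temperature reaction is quantified by Kinase-Glo luminescence. Enzyme: 25 nM BV-949 (p85 iSH2–linker–full-length p110β); substrates 1 μM ATP, 10 μg/mL PI; buffer Tris pH 7.5, MgCl2, NaCl, CHAPS, DTT. Eight concentrations per compound, four-parameter logistic IC50.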
# T2 sequence (P42336 with tags, fused parts or gaps limits assumed): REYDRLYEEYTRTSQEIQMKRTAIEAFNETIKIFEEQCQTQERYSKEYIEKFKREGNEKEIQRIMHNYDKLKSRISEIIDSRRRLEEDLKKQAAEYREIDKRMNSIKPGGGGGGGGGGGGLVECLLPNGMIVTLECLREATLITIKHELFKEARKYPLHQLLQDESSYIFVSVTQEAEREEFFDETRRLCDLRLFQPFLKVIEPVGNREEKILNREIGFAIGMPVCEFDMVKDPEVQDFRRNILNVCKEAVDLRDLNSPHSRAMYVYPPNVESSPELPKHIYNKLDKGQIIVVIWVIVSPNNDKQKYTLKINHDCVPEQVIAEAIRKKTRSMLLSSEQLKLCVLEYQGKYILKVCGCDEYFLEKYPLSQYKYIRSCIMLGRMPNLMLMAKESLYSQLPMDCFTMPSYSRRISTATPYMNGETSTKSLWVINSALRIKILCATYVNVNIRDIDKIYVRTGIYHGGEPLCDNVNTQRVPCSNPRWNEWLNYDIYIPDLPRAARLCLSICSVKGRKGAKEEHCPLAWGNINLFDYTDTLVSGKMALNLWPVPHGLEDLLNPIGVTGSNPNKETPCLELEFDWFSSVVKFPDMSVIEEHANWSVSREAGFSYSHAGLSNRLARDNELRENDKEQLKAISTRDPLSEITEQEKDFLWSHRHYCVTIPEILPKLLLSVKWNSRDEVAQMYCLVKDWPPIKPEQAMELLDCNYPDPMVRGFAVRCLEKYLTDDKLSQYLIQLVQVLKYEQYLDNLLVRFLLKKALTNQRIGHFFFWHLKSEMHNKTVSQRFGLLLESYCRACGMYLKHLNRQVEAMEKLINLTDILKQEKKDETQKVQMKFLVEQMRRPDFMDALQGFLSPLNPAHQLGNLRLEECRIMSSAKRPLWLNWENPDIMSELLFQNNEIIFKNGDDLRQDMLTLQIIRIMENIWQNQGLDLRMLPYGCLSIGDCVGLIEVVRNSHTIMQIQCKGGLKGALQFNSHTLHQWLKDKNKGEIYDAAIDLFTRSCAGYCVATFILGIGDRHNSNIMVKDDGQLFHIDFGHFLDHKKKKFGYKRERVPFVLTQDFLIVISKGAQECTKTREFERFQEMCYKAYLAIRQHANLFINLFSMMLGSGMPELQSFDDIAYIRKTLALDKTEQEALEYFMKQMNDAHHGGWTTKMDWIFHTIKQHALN
# T3 sequence (O00329 with tags, fused parts or gaps limits assumed): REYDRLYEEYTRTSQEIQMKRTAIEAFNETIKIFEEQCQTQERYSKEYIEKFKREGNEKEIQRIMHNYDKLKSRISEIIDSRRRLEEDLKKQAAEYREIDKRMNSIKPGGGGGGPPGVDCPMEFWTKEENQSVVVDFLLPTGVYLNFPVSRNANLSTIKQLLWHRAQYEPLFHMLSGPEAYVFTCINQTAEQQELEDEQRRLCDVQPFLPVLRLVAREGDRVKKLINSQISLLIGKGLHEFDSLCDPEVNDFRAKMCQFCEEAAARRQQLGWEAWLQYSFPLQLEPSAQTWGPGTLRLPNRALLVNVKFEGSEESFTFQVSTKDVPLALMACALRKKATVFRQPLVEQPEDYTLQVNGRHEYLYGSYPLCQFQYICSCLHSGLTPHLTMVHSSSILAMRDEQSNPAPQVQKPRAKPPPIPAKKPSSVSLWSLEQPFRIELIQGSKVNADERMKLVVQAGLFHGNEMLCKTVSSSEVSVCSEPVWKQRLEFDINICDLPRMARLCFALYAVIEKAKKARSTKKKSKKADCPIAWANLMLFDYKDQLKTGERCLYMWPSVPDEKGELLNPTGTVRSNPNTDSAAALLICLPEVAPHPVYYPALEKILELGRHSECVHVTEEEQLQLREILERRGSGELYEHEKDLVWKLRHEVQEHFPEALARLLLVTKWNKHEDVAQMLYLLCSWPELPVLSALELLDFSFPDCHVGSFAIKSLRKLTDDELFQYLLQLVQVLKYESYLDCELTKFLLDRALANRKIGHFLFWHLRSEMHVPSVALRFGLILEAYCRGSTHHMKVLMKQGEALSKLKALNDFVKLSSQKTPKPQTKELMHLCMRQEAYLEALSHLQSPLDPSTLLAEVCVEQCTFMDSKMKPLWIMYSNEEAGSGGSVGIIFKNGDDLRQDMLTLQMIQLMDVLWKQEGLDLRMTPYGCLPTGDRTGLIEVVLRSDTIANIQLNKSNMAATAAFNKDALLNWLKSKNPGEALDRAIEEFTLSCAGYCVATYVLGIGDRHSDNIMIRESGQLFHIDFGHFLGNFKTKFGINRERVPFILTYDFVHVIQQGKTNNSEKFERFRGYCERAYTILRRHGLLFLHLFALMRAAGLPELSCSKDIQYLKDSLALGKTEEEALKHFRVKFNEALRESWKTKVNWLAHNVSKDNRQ
# T4 sequence (P42338 with tags, fused parts or gaps limits assumed): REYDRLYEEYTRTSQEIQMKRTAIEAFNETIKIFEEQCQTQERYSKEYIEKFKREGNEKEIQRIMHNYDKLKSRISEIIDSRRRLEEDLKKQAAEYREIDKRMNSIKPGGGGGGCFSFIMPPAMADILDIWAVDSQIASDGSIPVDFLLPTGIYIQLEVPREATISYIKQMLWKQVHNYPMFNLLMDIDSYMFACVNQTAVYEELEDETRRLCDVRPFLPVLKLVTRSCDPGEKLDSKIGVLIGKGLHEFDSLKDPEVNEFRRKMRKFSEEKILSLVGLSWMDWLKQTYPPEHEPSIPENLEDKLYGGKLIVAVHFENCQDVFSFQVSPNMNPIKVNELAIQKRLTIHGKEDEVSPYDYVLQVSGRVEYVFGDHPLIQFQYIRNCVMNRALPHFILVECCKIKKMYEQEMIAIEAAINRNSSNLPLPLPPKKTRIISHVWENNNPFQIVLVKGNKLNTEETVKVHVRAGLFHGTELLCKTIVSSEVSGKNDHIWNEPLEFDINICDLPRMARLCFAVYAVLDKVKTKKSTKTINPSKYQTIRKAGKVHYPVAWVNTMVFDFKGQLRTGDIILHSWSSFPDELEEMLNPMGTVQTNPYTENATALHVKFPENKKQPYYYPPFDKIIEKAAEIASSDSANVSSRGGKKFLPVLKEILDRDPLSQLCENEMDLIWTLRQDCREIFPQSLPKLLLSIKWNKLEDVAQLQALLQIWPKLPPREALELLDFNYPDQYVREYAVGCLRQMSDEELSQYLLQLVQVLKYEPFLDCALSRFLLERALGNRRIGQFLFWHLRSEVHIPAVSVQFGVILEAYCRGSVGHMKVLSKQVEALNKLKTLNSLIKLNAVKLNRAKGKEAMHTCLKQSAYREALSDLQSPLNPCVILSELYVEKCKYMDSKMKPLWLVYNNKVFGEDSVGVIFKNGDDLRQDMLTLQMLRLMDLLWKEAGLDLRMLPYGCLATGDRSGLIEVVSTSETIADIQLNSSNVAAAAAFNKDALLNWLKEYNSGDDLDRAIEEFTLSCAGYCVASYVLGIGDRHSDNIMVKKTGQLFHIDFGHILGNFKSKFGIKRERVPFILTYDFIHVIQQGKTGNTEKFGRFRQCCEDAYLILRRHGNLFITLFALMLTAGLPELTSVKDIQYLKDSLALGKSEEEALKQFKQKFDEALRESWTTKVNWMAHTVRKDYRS
# T1 sequence (P48736 144-1102 limits assumed): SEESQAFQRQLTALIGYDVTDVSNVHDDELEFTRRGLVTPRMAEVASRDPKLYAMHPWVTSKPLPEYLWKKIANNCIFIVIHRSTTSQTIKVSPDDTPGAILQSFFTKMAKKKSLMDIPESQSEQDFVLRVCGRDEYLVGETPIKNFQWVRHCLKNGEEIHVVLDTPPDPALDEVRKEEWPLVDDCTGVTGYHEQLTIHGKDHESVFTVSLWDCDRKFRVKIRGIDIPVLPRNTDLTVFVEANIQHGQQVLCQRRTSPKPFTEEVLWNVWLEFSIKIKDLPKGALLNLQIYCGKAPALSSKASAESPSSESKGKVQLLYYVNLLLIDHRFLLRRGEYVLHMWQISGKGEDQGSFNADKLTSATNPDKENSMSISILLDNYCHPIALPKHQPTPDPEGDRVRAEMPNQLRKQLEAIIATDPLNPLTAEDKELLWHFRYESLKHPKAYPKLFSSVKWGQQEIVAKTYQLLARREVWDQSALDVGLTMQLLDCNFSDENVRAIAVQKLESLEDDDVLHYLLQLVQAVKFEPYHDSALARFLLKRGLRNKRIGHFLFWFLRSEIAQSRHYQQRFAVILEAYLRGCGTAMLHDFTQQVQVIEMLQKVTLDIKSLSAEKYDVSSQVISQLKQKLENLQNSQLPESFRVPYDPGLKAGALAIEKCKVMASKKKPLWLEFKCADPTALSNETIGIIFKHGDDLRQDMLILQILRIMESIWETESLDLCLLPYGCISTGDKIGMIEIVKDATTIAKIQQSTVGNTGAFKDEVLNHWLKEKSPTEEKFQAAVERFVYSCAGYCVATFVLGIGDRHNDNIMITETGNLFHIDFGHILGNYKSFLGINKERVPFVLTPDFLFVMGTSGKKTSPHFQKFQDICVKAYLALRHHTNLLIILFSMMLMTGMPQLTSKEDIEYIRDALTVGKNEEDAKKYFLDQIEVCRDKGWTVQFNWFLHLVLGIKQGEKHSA
Structure (SMILES),IC50 [1],IC50 [2],IC50 [3],IC50 [4]
"COc1ccc(-c2ccc3ncc4c(c3c2)n(-c2ccnn2C)c(=O)n4C)cc1OC [Example 1.3, 8-(3,4-Dimethoxy-phenyl)-3-methyl-1-(2-methyl-2H-pyrazol-3-yl)-1,3-dihydro-imidazo[4,5-c]quinolin-2-one]",540 nM,14 nM,12 nM,129 nM
"CNc1ccc(-c2ccc3ncc4c(c3c2)n(-c2cn(C)nc2C)c(=O)n4C)cn1 [Example 118.2, 1-(1,3-Dimethyl-1H-pyrazol-4-yl)-3-methyl-8-(6-methylamino-pyridin-3-yl)-1,3-dihydro-imidazo[4,5-c]quinolin-2-one]",279 nM,11 nM,13 nM,82 nM
"CCOc1cncc(-c2ccc3ncc4c(c3c2)n(-c2cn(C)nc2Cl)c(=O)n4C)c1 [Example 56.4, 1-(3-Chloro-1-methyl-1H-pyrazol-4-yl)-8-(5-ethoxy-pyridin-3-yl)-3-methyl-1,3-dihydro-imidazo[4,5-c]quinolin-2-one]",121 nM,5 nM,6 nM,6 nM
"COCc1cncc(-c2ccc3ncc4c(c3c2)n(-c2cn(C)nc2C)c(=O)n4C)c1 [Example 54.1, 1-(1,3-Dimethyl-1H-pyrazol-4-yl)-8-(5-methoxymethyl-pyridin-3-yl)-3-methyl-1,3-dihydro-imidazo[4,5-c]quinolin-2-one]",157 nM,17 nM,19 nM,28 nM
"Cc1nn(C)cc1-n1c(=O)n(C)c2cnc3ccc(-c4cnc5c(c4)ncn5C)cc3c21 [Example 74, 1-(1,3-Dimethyl-1H-pyrazol-4-yl)-3-methyl-8-(3-methyl-3H-imidazo[4,5-b]pyridin-6-yl)-1,3-dihydro-imidazo[4,5-c]quinolin-2-one]",307 nM,20 nM,43 nM,370 nM
"Cc1nn(C)cc1-n1c(=O)n(C)c2cnc3ccc(-c4cccc5c4OC(F)(F)O5)cc3c21 [Example 35, 8-(2,2-Difluoro-benzo[1,3]dioxol-4-yl)-1-(1,3-dimethyl-1H-pyrazol-4-yl)-3-methyl-1,3-dihydro-imidazo[4,5-c]quinolin-2-one]",113 nM,5 nM,29 nM,37 nM
"Cc1nn(C)cc1-n1c(=O)n(C)c2cnc3ccc(-c4cnc5cc[nH]c5c4)cc3c21 [Example 99, 1-(1,3-Dimethyl-1H-pyrazol-4-yl)-3-methyl-8-(1H-pyrrolo[3,2-b]pyridin-6-yl)-1,3-dihydro-imidazo[4,5-c]quinolin-2-one]",,16 nM,6 nM,33 nM
"CCN(C)C(=O)Cn1cc(-n2c(=O)n(C)c3cnc4ccc(-c5cncc(OC(C)C)c5)cc4c32)c(C)n1 [Example 58.5, N-Ethyl-2-{4-[8-(5-isopropoxy-pyridin-3-yl)-3-methyl-2-oxo-2,3-dihydro-imidazo[4,5-c]quinolin-1-yl]-3-methyl-pyrazol-1-yl}-N-methyl-acetamide]",,7 nM,39 nM,69 nM
"COc1ncc(-c2ccc3ncc4c(c3c2)n(-c2cn(C)nc2C)c(=O)n4C)cc1NC(C)=O [Example 64, N-{5-[1-(1,3-Dimethyl-1H-pyrazol-4-yl)-3-methyl-2-oxo-2,3-dihydro-1H-imidazo[4,5-c]quinolin-8-yl]-2-methoxy-pyridin-3-yl}-acetamide]",,87 nM,51 nM,322 nM
"CNc1ncc(-c2ccc3ncc4c(c3c2)n(-c2c(C)nn(C)c2C)c(=O)n4C)cc1F [Example 141.1, 8-(5-Fluoro-6-methylamino-pyridin-3-yl)-3-methyl-1-(1,3,5-trimethyl-1H-pyrazol-4-yl)-1,3-dihydro-imidazo[4,5-c]quinolin-2-one]",,817 nM,44 nM,469 nM
"Cc1nn(C)c(C)c1-n1c(=O)n(C)c2cnc3ccc(-c4cnc(N)c(F)c4)cc3c21 [Example 142.1, 8-(6-Amino-5-fluoro-pyridin-3-yl)-3-methyl-1-(1,3,5-trimethyl-1H-pyrazol-4-yl)-1,3-dihydro-imidazo[4,5-c]quinolin-2-one]",,28 nM,4 nM,201 nM
"CNc1ncc(-c2ccc3ncc4c(c3c2)n(-c2cc(C)nn2C)c(=O)n4C)cc1Cl [Example 146.5, 8-(5-Chloro-6-methylamino-pyridin-3-yl)-1-(2,5-dimethyl-2H-pyrazol-3-yl)-3-methyl-1,3-dihydro-imidazo[4,5-c]quinolin-2-one]",,9 nM,3 nM,167 nM

# More lines, now with the values ahead:
IC50 [1],IC50 [2],IC50 [3],IC50 [4],Structure (SMILES)
,18 nM,14 nM,72 nM,"COCc1ncc(-c2ccc3ncc4c(c3c2)n(-c2cn(C)nc2C)c(=O)n4C)cc1OC [Example 195.1, 1-(1,3-Dimethyl-1H-pyrazol-4-yl)-8-(5-methoxy-6-methoxymethyl-pyridin-3-yl)-3-methyl-1,3-dihydro-imidazo[4,5-c]quinolin-2-one]"
,23 nM,11 nM,68 nM,"CCn1cc(-n2c(=O)n(C)c3cnc4ccc(-c5cnc(N)c(COC)c5)cc4c32)c(C)n1 [Example 168.2, 8-(6-Amino-5-methoxymethyl-pyridin-3-yl)-1-(1-ethyl-3-methyl-1H-pyrazol-4-yl)-3-methyl-1,3-dihydro-imidazo[4,5-c]quinolin-2-one]"
,11 nM,6 nM,13 nM,"COCc1cc(-c2ccc3ncc4c(c3c2)n(-c2cn(C)nc2C)c(=O)n4C)cnc1OC [Example 202, 1-(1,3-Dimethyl-1H-pyrazol-4-yl)-8-(6-methoxy-5-methoxymethyl-pyridin-3-yl)-3-methyl-1,3-dihydro-imidazo[4,5-c]quinolin-2-one]"
,13 nM,6 nM,19 nM,"Cc1nn(C)cc1-n1c(=O)n(C)c2cnc3ccc(-c4cncc(C5(O)CCCC5)c4)cc3c21 [Example 218, 1-(1,3-Dimethyl-1H-pyrazol-4-yl)-8-[5-(1-hydroxy-cyclopentyl)-pyridin-3-yl]-3-methyl-1,3-dihydro-imidazo[4,5-c]quinolin-2-one]"
,13 nM,11 nM,36 nM,"Cc1nn(C)cc1-n1c(=O)n(C)c2cnc3ccc(-c4cnc(CO)c(OC(C)C)c4)cc3c21 [Example 190, 1-(1,3-Dimethyl-1H-pyrazol-4-yl)-8-(6-hydroxymethyl-5-isopropoxy-pyridin-3-yl)-3-methyl-1,3-dihydro-imidazo[4,5-c]quinolin-2-one]"
,15 nM,5 nM,27 nM,"[2H]C([2H])([2H])OCc1ncc(-c2ccc3ncc4c(c3c2)n(-c2cn(C)nc2Cl)c(=O)n4C)cc1OC [Example 199, 1-(3-Chloro-1-methyl-1H-pyrazol-4-yl)-8-(5-methoxy-6-trideuteromethoxymethyl-pyridin-3-yl)-3-methyl-1,3-dihydro-imidazo[4,5-c]quinolin-2-one]"
,< 3 nM,< 3 nM,25 nM,"COc1ncc(-c2ccc3ncc4c(c3c2)n(-c2cn(C)nc2C)c(=O)n4C)c(OC)n1 [Example 234.2, 8-(2,4-Dimethoxy-pyrimidin-5-yl)-1-(1,3-dimethyl-1H-pyrazol-4-yl)-3-methyl-1,3-dihydro-imidazo[4,5-c]quinolin-2-one]"
,9 nM,7 nM,12 nM,"CNc1cc(-c2ccc3ncc4c(c3c2)n(-c2cn(C)nc2C)c(=O)n4C)cnc1F [Example 150.2, 1-(1,3-Dimethyl-1H-pyrazol-4-yl)-8-(6-fluoro-5-methylamino-pyridin-3-yl)-3-methyl-1,3-dihydro-imidazo[4,5-c]quinolin-2-one]"
,6 nM,9 nM,273 nM,"Cc1nn(C)cc1-n1c(=O)n(C)c2cnc3ccc(-c4cnc5c(c4)OCCN5C)cc3c21 [Example 209, 1-(1,3-Dimethyl-1H-pyrazol-4-yl)-3-methyl-8-(4-methyl-3,4-dihydro-2H-pyrido[3,2-b][1,4]oxazin-7-yl)-1,3-dihydro-imidazo[4,5-c]quinolin-2-one]"
,14 nM,11 nM,10 nM,"Cc1nn(C)cc1-n1c(=O)n(C)c2cnc3ccc(-c4cncc(C(C)(C)O)c4)cc3c21 [Example 215.2, 1-(1,3-Dimethyl-1H-pyrazol-4-yl)-8-[5-(1-hydroxy-1-methyl-ethyl)-pyridin-3-yl]-3-methyl-1,3-dihydro-imidazo[4,5-c]quinolin-2-one]"
